Data as given in the kinase profiling compilation of Christmann-Franck et al. (2016).

What was measured:
Test in all cases: radiometric filter-binding kinase assay, Kinase HotSpot
Conditions in all cases: compound 0.5 µM; ATP 10 µM
ACVR1 (human) = ACVR1 (human) (UniProt Q04771)
AURKA (human) = AURKA (human) (UniProt O14965)
BLK (human) = BLK (human) (UniProt P51451)
BMX (human) = BMX (human) (UniProt P51813)
BRSK2 (human) = BRSK2 (human) (UniProt Q8IWQ3)
CAMK2G (human) = CAMK2G (human) (UniProt Q13555)
CAMK4 (human) = CAMK4 (human) (UniProt Q16566)
CDK1 CCNB1 (human) = CDK1 CCNB1 (human) (UniProt P06493+P14635)
CHEK2 (human) = CHEK2 (human) (UniProt O96017)
CLK4 (human) = CLK4 (human) (UniProt Q9HAZ1)
DAPK2 (human) = DAPK2 (human) (UniProt Q9UIK4)
DAPK3 (human) = DAPK3 (human) (UniProt O43293)
DSTYK (human) = DSTYK (human) (UniProt Q6XUX3)
DYRK4 (human) = DYRK4 (human) (UniProt Q9NR20)
EPHA2 (human) = EPHA2 (human) (UniProt P29317)
EPHA3 (human) = EPHA3 (human) (UniProt P29320)
EPHB1 (human) = EPHB1 (human) (UniProt P54762)
FGFR2 (human) = FGFR2 (human) (UniProt P21802)
FLT1 (human) = FLT1 (human) (UniProt P17948)
FLT3 (human) = FLT3 (human) (UniProt P36888)
GRK5 (human) = GRK5 (human) (UniProt P34947)
JAK3 JH1 JH2 (human) = JAK3 JH1 JH2 (human) (UniProt P52333)
LCK (human) = LCK (human) (UniProt P06239)
MAP2K2 (human) = MAP2K2 (human) (UniProt P36507)
MAP4K5 (human) = MAP4K5 (human) (UniProt Q9Y4K4)
MAPK9 (human) = MAPK9 (human) (UniProt P45984)
MARK3 (human) = MARK3 (human) (UniProt P27448)
MATK (human) = MATK (human) (UniProt P42679)
MERTK (human) = MERTK (human) (UniProt Q12866)
NLK (human) = NLK (human) (UniProt Q9UBE8)
NTRK2 (human) = NTRK2 (human) (UniProt Q16620)
PAK2 (human) = PAK2 (human) (UniProt Q13177)
PAK3 (human) = PAK3 (human) (UniProt O75914)
PLK2 (human) = PLK2 (human) (UniProt Q9NYY3)
PRKCD (human) = PRKCD (human) (UniProt Q05655)
PRKCG (human) = PRKCG (human) (UniProt P05129)
PRKG2 (human) = PRKG2 (human) (UniProt Q13237)
ROCK2 (human) = ROCK2 (human) (UniProt O75116)
STK33 (human) = STK33 (human) (UniProt Q9BYT3)
TEC (human) = TEC (human) (UniProt P42680)
ULK1 (human) = ULK1 (human) (UniProt O75385)
ULK2 (human) = ULK2 (human) (UniProt Q8IYT8)

Sequence of CAMK4 (human) (Q16566 whole entry, looked up): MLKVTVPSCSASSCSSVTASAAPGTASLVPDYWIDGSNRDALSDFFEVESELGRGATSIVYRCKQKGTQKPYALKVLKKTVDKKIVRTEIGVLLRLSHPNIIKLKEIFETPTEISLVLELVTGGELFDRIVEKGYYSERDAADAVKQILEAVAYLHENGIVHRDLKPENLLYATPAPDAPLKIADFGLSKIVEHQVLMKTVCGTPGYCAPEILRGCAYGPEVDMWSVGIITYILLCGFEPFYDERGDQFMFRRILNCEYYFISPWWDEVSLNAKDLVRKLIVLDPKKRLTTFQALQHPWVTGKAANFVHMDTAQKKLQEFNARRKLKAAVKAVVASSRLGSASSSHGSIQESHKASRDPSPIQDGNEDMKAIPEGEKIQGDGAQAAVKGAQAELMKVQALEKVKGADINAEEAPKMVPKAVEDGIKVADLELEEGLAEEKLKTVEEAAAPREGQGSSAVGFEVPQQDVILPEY
Sequence of BLK (human) (P51451 whole entry, looked up): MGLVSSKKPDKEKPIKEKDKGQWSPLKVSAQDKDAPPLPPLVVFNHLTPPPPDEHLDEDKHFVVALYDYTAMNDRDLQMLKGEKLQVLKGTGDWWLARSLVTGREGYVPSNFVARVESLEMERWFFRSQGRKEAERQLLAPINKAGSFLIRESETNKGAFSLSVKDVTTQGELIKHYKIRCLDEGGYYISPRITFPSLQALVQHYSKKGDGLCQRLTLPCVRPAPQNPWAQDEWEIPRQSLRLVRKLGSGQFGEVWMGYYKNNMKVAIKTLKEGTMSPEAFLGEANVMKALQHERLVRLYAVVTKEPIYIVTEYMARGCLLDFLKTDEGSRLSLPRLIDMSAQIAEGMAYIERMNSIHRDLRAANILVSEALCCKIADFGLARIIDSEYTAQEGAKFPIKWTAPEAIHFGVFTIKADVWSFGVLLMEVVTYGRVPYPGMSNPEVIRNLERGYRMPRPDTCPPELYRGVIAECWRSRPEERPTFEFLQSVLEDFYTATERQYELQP
Sequence of PLK2 (human) (Q9NYY3 whole entry, looked up): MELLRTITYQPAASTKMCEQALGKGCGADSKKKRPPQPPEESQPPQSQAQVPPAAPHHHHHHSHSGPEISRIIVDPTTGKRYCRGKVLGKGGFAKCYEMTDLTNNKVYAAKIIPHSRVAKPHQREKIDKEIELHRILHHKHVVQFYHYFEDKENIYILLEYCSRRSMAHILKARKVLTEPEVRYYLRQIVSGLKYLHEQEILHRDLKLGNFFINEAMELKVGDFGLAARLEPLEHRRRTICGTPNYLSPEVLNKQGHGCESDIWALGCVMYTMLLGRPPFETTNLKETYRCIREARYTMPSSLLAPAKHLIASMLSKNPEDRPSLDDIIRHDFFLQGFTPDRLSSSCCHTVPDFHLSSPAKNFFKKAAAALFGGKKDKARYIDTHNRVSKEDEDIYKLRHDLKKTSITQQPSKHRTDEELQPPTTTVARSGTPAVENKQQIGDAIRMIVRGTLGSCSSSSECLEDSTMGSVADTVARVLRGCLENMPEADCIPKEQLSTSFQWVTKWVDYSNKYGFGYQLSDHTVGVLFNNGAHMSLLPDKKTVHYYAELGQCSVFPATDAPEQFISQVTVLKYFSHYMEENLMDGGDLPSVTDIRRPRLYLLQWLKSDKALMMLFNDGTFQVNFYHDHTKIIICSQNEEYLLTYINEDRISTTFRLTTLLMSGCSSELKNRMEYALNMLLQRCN
Sequence of MAP2K2 (human) (P36507 whole entry, looked up): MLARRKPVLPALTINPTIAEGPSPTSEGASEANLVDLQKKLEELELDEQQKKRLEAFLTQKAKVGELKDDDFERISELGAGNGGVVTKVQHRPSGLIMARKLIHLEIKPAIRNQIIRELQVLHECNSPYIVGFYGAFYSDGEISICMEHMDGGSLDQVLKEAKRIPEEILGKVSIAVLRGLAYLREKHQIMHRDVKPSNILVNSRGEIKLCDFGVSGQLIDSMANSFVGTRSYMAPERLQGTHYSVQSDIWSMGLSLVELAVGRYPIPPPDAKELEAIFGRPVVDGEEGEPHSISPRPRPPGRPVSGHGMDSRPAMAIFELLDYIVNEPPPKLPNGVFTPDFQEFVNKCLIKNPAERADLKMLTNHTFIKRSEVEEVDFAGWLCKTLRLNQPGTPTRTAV
Sequence of EPHB1 (human) (P54762 whole entry, looked up): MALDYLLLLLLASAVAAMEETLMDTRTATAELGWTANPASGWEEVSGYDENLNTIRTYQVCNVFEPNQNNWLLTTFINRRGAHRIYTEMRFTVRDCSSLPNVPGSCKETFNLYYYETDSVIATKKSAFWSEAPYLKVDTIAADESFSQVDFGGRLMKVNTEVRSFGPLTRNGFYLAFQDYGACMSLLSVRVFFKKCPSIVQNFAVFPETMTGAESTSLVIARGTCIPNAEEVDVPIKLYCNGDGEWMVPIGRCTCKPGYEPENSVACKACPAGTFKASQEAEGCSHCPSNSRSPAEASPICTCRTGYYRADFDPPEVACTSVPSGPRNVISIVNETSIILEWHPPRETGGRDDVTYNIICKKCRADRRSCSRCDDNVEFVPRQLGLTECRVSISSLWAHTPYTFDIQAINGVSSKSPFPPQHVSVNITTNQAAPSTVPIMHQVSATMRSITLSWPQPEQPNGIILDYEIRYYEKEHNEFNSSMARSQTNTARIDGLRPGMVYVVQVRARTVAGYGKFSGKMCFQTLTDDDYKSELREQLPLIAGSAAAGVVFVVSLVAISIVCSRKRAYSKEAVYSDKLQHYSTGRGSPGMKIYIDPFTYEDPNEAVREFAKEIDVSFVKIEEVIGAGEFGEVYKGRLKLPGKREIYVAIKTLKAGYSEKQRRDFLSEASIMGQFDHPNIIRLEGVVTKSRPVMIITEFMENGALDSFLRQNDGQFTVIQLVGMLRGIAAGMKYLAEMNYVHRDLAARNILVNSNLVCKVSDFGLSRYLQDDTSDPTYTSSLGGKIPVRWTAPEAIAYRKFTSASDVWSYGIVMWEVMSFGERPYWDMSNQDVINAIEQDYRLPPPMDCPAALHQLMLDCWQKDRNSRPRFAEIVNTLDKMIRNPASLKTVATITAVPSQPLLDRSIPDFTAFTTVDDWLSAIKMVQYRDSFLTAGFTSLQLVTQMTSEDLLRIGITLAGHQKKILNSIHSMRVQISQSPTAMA
Sequence of GRK5 (human) (P34947 whole entry, looked up): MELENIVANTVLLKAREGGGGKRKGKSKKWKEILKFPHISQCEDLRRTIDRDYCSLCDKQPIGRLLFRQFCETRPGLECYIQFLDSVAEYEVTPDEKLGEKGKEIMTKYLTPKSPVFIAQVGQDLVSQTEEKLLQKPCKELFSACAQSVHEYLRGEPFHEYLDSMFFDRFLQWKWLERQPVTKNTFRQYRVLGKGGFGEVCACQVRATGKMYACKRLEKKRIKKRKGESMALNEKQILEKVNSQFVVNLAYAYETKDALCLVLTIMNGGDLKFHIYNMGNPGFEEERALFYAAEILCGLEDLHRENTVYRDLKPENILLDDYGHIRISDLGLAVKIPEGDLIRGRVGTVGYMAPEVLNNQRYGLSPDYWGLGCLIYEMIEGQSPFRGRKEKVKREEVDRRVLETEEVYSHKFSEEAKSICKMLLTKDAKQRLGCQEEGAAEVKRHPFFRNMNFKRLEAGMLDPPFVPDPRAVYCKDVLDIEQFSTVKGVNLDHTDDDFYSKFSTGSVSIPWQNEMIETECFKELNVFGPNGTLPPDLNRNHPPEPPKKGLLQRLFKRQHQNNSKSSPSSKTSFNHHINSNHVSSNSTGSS
Sequence of MATK (human) (P42679 whole entry, looked up): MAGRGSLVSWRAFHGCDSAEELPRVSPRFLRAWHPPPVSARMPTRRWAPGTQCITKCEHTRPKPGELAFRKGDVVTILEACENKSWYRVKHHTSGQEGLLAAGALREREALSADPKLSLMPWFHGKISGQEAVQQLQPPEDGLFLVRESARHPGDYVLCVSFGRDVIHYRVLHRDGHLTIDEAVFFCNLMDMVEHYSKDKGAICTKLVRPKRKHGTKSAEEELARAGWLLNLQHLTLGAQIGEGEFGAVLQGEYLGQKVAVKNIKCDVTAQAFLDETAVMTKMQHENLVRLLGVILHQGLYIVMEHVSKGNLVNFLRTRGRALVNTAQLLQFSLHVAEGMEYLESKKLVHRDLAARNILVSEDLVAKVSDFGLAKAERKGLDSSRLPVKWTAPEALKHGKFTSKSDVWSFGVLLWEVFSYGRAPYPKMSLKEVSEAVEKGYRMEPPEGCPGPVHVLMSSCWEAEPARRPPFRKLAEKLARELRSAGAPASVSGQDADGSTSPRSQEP
Sequence of CHEK2 (human) (O96017 whole entry, looked up): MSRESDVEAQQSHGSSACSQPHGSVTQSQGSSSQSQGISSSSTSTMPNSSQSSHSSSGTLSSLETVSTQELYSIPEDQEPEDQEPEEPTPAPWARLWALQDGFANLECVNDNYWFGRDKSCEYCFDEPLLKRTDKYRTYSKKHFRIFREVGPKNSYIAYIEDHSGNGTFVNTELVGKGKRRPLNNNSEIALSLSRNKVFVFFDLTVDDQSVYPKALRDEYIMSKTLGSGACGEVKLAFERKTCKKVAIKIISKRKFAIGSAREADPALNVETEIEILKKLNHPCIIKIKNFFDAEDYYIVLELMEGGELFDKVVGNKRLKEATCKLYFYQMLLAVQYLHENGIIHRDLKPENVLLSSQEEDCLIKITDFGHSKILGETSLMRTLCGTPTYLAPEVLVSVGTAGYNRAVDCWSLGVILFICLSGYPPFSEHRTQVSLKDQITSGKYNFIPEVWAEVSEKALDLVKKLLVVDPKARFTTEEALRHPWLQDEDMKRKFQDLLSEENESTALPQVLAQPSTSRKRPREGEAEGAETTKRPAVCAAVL

With `Cc1[nH]c(/C=C2\C(=O)Nc3ccc(S(=O)(=O)N(C)c4cccc(Cl)c4)cc32)c(C)c1C(=O)N1CCN(C)CC1` the residual activity (ACVR1 (human)) was 96.8%, the residual activity (AURKA (human)) was 27.6% and the residual activity (BLK (human)) was 51.7%. The residual activity (BMX (human)) was 97.3%, the residual activity (BRSK2 (human)) was 89% and the residual activity (CAMK2G (human)) was 119%. The residual activity (CAMK4 (human)) was 96.2%, the residual activity (CDK1 CCNB1 (human)) was 101% and the residual activity (CHEK2 (human)) was 85.1%. It also gave a residual activity (CLK4 (human)) of 34.3%, a residual activity (DAPK2 (human)) of 111% and a residual activity (DAPK3 (human)) of 106%. For the same compound, the residual activity (DSTYK (human)) was 97.2%, the residual activity (DYRK4 (human)) was 96.1% and the residual activity (EPHA2 (human)) was 97.8%. For the same compound, the residual activity (EPHA3 (human)) was 103%, the residual activity (EPHB1 (human)) was 84.5% and the residual activity (FGFR2 (human)) was 74.1%. It also gave a residual activity (FLT1 (human)) of 74.7%, a residual activity (FLT3 (human)) of 26.5% and a residual activity (GRK5 (human)) of 98.9%. It also gave a residual activity (JAK3 JH1 JH2 (human)) of 47%, a residual activity (LCK (human)) of 29.3% and a residual activity (MAP2K2 (human)) of 99.5%. For the same compound, the residual activity (MAP4K5 (human)) was 5.06%, the residual activity (MAPK9 (human)) was 78% and the residual activity (MARK3 (human)) was 41.9%. For the same compound, the residual activity (MATK (human)) was 100%, the residual activity (MERTK (human)) was 21.4% and the residual activity (NLK (human)) was 106%. The residual activity (NTRK2 (human)) was 35.7%, the residual activity (PAK2 (human)) was 96.2% and the residual activity (PAK3 (human)) was 93.5%. The residual activity (PLK2 (human)) was 96.4%, the residual activity (PRKCD (human)) was 95.3% and the residual activity (PRKCG (human)) was 94.8%. For the same compound, the residual activity (PRKG2 (human)) was 104%, the residual activity (ROCK2 (human)) was 58.2% and the residual activity (STK33 (human)) was 67.9%. It also gave a residual activity (TEC (human)) of 86.7%, a residual activity (ULK1 (human)) of 5.17% and a residual activity (ULK2 (human)) of 16.8%.

`CCOC(=O)c1c(C)[nH]c(/C=C2\C(=O)Nc3ccccc32)c1C` was tested, and the residual activity (ACVR1 (human)) was 99.8%, the residual activity (AURKA (human)) was 90.4% and the residual activity (BLK (human)) was 80.2%. For the same compound, the residual activity (BMX (human)) was 93.5%, the residual activity (BRSK2 (human)) was 98.7% and the residual activity (CAMK2G (human)) was 97.6%. The residual activity (CAMK4 (human)) was 97.7%, the residual activity (CDK1 CCNB1 (human)) was 100% and the residual activity (CHEK2 (human)) was 70.5%. The residual activity (CLK4 (human)) was 94.3%, the residual activity (DAPK2 (human)) was 96.3% and the residual activity (DAPK3 (human)) was 85.1%. The residual activity (DSTYK (human)) was 90.8%, the residual activity (DYRK4 (human)) was 99.6% and the residual activity (EPHA2 (human)) was 105%. For the same compound, the residual activity (EPHA3 (human)) was 96.3%, the residual activity (EPHB1 (human)) was 97.5% and the residual activity (FGFR2 (human)) was 97.9%. It also gave a residual activity (FLT1 (human)) of 79%, a residual activity (FLT3 (human)) of 13.3% and a residual activity (GRK5 (human)) of 102%. For the same compound, the residual activity (JAK3 JH1 JH2 (human)) was 69.1%, the residual activity (LCK (human)) was 88.2% and the residual activity (MAP2K2 (human)) was 102%. The residual activity (MAP4K5 (human)) was 84.3%, the residual activity (MAPK9 (human)) was 93.9% and the residual activity (MARK3 (human)) was 99.8%. For the same compound, the residual activity (MATK (human)) was 101%, the residual activity (MERTK (human)) was 69.3% and the residual activity (NLK (human)) was 94.8%. The residual activity (NTRK2 (human)) was 66.6%, the residual activity (PAK2 (human)) was 92.5% and the residual activity (PAK3 (human)) was 99.1%. The residual activity (PLK2 (human)) was 102%, the residual activity (PRKCD (human)) was 91.6% and the residual activity (PRKCG (human)) was 91.9%. It also gave a residual activity (PRKG2 (human)) of 78.9%, a residual activity (ROCK2 (human)) of 94.3% and a residual activity (STK33 (human)) of 83.7%. It also gave a residual activity (TEC (human)) of 141%, a residual activity (ULK1 (human)) of 80.1% and a residual activity (ULK2 (human)) of 105%.
